According to patent US20040152727A1, “Novel use” (priority 2001, published 2004):
Marks after values point to notes of the source that are not given here.

Experiments:
rats [1] = assay: small intestinal transit in normal, non-sensitised animals; format: in vivo, rat; details: 15 mg/kg po
rats [2] = assay: egg-albumin sensitized increase in rat small intestinal transit; format: in vivo; details: pre-treatment 15 mg/kg po
conscious rats = assay: colo-rectal distension in conscious rats (intestinal nociception); format: in vivo, rat
[3] = test system: guinea-pig enteric neurones; assay: slow EPSP in guinea-pig enteric neurones; format: cell-based; details: 0.1 microM
Method: The slowEPSP was elicited by high frequency (20 Hz) electrical stimulation for 1 s, applied to a circumferential internodal strand connecting to the ganglion. […] It was perfused continuously and the slowEPSP was tested at various intervals. In all four neurons there was a decrease of peak amplitude of depolarisation of over 50% when compared with baseline, once the drug had circulated for at least 30 minutes.

rat NK-3 receptor = molecular target: T1, rat NK-3 receptor (Rattus norvegicus, UniProt P16177); assay: affinity for the rat NK-3 receptor; format: binding; details: relative to its higher affinity for the human or guinea-pig variants
T1 sequence (P16177 1-452): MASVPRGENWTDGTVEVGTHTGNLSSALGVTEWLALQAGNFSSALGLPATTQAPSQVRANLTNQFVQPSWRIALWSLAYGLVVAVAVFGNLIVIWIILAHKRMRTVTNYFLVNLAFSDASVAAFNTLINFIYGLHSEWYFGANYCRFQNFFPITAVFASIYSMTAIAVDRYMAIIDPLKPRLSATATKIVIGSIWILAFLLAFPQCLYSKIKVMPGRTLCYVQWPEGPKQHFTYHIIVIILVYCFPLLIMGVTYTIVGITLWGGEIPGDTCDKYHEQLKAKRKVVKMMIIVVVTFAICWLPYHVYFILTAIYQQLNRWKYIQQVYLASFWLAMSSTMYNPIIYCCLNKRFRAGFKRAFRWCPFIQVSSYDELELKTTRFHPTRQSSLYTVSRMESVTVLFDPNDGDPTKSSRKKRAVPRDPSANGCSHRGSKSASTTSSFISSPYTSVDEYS

rats [4] = assay: gastrointestinal motility in rats, charcoal meal test; format: in vivo, rat; details: for effect on gastrointestinal motility in the rat: charcoal meal test; for % CHANGE FROM VEHICLE-TREATED ANIMALS / GROUP MEAN DISTANCE TRAVELLED BY CHARCOAL AS % OF TOTAL GUT LENGTH ± SD: rat, oral
Description: Thus, the distance travelled by the charcoal meal in each Compound (I)-treated group was similar to the vehicle-treated group at each tested dose.

[5] = test system: guinea-pig isolated colon; assay: stretch-induced reflex activity in guinea-pig isolated colon; details: 250 nM applied for 30-45 min; 6, 12 or 20 g weights; greater at higher distension
Description: For reflex studies, 5-7 cm lengths of colon were suspended in warmed, oxygenated physiological saline, so that an 8 mm metal bar could be inserted into the lumen and connected, via a thread passing through the intestinal wall, to a pulley system which allowed different weights to pull on the bar and distend the intestine. Force transducers were attached to the wall of the colon via small wire hooks, 5 mm either side of the distending bar. Colonic wall distension using 6, 12 or 20 g weights evoked rhythmic contractions oral to the distension and a small relaxation on the anal side. Application of 12 and 20 g weights evoked similar patterns of activity and although the small relaxation on the anal side of the distension seemed more apparent, the oral excitatory response was not different from the effects of the 6 g weight.

rats [6] = assay: rat gastric emptying, phenol red method; format: in vivo; details: for % GASTRIC EMPTYING: rat, oral

Compound: CC[C@H](NC(=O)c1c(O)c(-c2ccccc2)nc2ccccc12)c1ccccc1 [Compound (I), (S)-N-(α-ethylbenzyl)-3-hydroxy-2-phenylquinoline-4-carboxamide]
- effect on small intestinal transit (rats [1]): did not significantly affect
- effect on increased transit after egg-albumin sensitisation (rats [2]): greatly inhibited
- antinociceptive effect during colo-rectal distension (conscious rats; 10 mg/kg po): without anti-nociceptive activity
- antinociceptive effect during colo-rectal distension (conscious rats; 30 mg/kg po): statistically significant only at the highest distension pressure
- effect on colo-rectal tone (conscious rats; 50 mg/kg po): without affecting colo-rectal tone
- antinociceptive effect during colo-rectal distension (conscious rats; 50 mg/kg po, 30, 45 and 60 mmHg distension pressures): significant antinociceptive effect
- decrease of peak amplitude of depolarisation of slowEPSP compared with baseline ([3]; circulated at least 30 minutes, all four neurons): over 50%
- blockade of slowEPSP ([3]; one neuron): 100%
- blockade of slowEPSP based on the amplitude of depolarisation ([3]; the other three neurons): 60-80%
- affinity for the rat NK-3 receptor (rat NK-3 receptor): low affinity
- effect on gastrointestinal motility in the rat (rats [4]; oral, 5, 15 and 50 mg/kg): no marked or statistically significant effect
- % CHANGE FROM VEHICLE-TREATED ANIMALS (rats [4]; 5 mg/kg): −11.5%
- GROUP MEAN DISTANCE TRAVELLED BY CHARCOAL AS % OF TOTAL GUT LENGTH ± SD (rats [4]; 5 mg/kg): 46.9 ± 5.3%
- % CHANGE FROM VEHICLE-TREATED ANIMALS (rats [4]; 15 mg/kg): −1.7%
- GROUP MEAN DISTANCE TRAVELLED BY CHARCOAL AS % OF TOTAL GUT LENGTH ± SD (rats [4]; 15 mg/kg): 52.1 ± 7.1%
- % CHANGE FROM VEHICLE-TREATED ANIMALS (rats [4]; 50 mg/kg): −4.9%
- GROUP MEAN DISTANCE TRAVELLED BY CHARCOAL AS % OF TOTAL GUT LENGTH ± SD (rats [4]; 50 mg/kg): 50.4 ± 8.6%
- effect on reflexes evoked by colonic wall distension [5]: reduced the effects of distension
- effect on rat gastric emptying (rats [6]; oral doses of 5, 15 and 50 mg/kg): no marked or statistically significant effects
- % GASTRIC EMPTYING (rats [6]; 5 mg/kg): 55.2%
- % GASTRIC EMPTYING (rats [6]; 15 mg/kg): 50.7%
- % GASTRIC EMPTYING (rats [6]; 50 mg/kg): 62.4%

Compound: CN1CC[C@]23c4c5ccc(O)c4O[C@H]2[C@@H](O)C=C[C@H]3[C@H]1C5.O=S(=O)(O)O [Morphine sulfate, reference compound]
- effect on gastrointestinal motility in the rat (rats [4]; oral dose of 10 mg/kg): marked and statistically significant decrease
- % CHANGE FROM VEHICLE-TREATED ANIMALS (rats [4]; 10 mg/kg): −29.4%
- GROUP MEAN DISTANCE TRAVELLED BY CHARCOAL AS % OF TOTAL GUT LENGTH ± SD (rats [4]; 10 mg/kg): 37.4 ± 12.4%
- effect on rat gastric emptying (rats [6]; orally at 20 mg/kg): marked and statistically significant decrease
- % GASTRIC EMPTYING (rats [6]; 20 mg/kg): 30.8** %
